# Reference: article PMC7926793, “Synthesis and Biological Evaluation of 1-(Diarylmethyl)-1H-1,2,4-triazoles and 1-(Diarylmethyl)-1H-imidazoles as a Novel Class of Anti-Mitotic Agent for Activity in Breast Cancer” (Pharmaceuticals, 2021)
# Where “and” joins values, the source holds several entries; their conditions need not be identical. Identical values can stand only once.
# How the values were obtained:
# A549/ATCC = assay: NCI 60 cell line screen (Non-Small Cell Lung Cancer); type: cell-based, human; conditions: for Growth percentage: single dose 10 µM; for GI50: Homo sapiens, NCI 5 dose assay
# HCT-2998 = assay: NCI 60 cell line screen (Colon Cancer); type: cell-based, human; conditions: for Growth percentage: HCT-2998, single dose 10 µM; for GI50: Homo sapiens, 60 cell, HCT-2998, NCI 5 dose assay
# HCT-116 = assay: NCI 60 cell line screen (Colon Cancer); type: cell-based, human; conditions: for Growth percentage: HCT-116, single dose 10 µM; for GI50: Homo sapiens, HCT-116, NCI 5 dose assay
# SNB-19 = assay: NCI 60 cell line screen (CNS Cancer); type: cell-based, human; conditions: for Growth percentage: SNB-19, single dose 10 µM; for GI50: Homo sapiens, SNB-19, NCI 5 dose assay
# SNB-75 = assay: NCI 60 cell line screen (CNS Cancer); type: cell-based, human; conditions: for Growth percentage: SNB-75, single dose 10 µM
# LOX IMV1 = assay: NCI 60 cell line screen (Melanoma); type: cell-based, human; conditions: for Growth percentage: LOX IMV1, single dose 10 µM; for GI50: Homo sapiens, LOX IMV1, NCI 5 dose assay
# M14 = assay: NCI 60 cell line screen (Melanoma); type: cell-based, human; conditions: for Growth percentage: M14, single dose 10 µM; for GI50: Homo sapiens, M14, NCI 5 dose assay
# SK-MEL-2 = assay: NCI 60 cell line screen (Melanoma); type: cell-based, human; conditions: for Growth percentage: SK-MEL-2, single dose 10 µM; for GI50: Homo sapiens, SK-MEL-2, NCI 5 dose assay
# UACC-62 = assay: NCI 60 cell line screen (Melanoma); type: cell-based, human; conditions: for Growth percentage: UACC-62, single dose 10 µM; for GI50: Homo sapiens, UACC-62, NCI 5 dose assay
# UACC-257 = assay: NCI 60 cell line screen (Melanoma); type: cell-based, human; conditions: for Growth percentage: UACC-257, single dose 10 µM; for GI50: Homo sapiens, UACC-257, NCI 5 dose assay
# IGROV1 = assay: NCI 60 cell line screen (Ovarian Cancer); type: cell-based, human; conditions: for Growth percentage: IGROV1, single dose 10 µM; for GI50: Homo sapiens, IGROV-1, IGROV1, NCI 5 dose assay
# MCF-7 = assay: NCI 60 cell line screen (Breast Cancer); type: cell-based, human; conditions: for Growth percentage: MCF-7, single dose 10 µM; for GI50: Homo sapiens, MCF7, MCF-7, NCI 5 dose assay
# HS 578T = assay: NCI 60 cell line screen (Breast Cancer); type: cell-based, human; conditions: for Growth percentage: single dose 10 µM; for GI50: Homo sapiens, NCI 5 dose assay
# BT-549 = assay: NCI 60 cell line screen (Breast Cancer); type: cell-based, human; conditions: for Growth percentage: BT-549, single dose 10 µM; for GI50: Homo sapiens, BT-549, NCI 5 dose assay
# T-47D = assay: NCI 60 cell line screen (Breast Cancer); type: cell-based, human; conditions: single dose 10 µM
# MDA-MB-468 = assay: NCI 60 cell line screen (Breast Cancer); type: cell-based, human; conditions: for Growth percentage: MDA-MB-468, single dose 10 µM; for GI50: Homo sapiens, MDA-MB-468, NCI 5 dose assay
# HL-60 leukaemia cells = assay: cell viability assay; type: cell-based; conditions: Homo sapiens, read-out: Antiproliferative Activity HL-60 Cells IC50
# Protocol: The human breast carcinoma cell line MCF-7 was purchased from the European Collection of Animal Cell Cultures (ECACC) and cultured in Eagles minimum essential medium with 10% foetal bovine serum, 2 mM L-glutamine, and 100 μg/mL penicillin/streptomycin. The medium was supplemented with 1% non-essential amino acids. The human breast carcinoma cell line MDA-MB-231 was purchased from the ECACC. MDA-MB-231 cells were maintained in Dulbecco’s modified Eagle’s medium (DMEM) supplemented with 10% (v/v) foetal bovine serum, 2 mM L-glutamine, and 100 μg/mL penicillin/streptomycin (complete medium). HL-60 cells were derived from a patient with acute myeloid leukaemia and were obtained from the ECACC (Salisbury, UK). Cells were cultured in RPMI-1640 Glutamax medium supplemented with 10% FCS media and 100 μg/mL penicillin/streptomycin. MCF-10A cells were obtained as a kind gift from Dr Susan McDonnell, School of Chemical and Bioprocess Engineering, University College Dublin and were cultured in Dulbecco’s Modified Eagle Medium: Nutrient Mixture F-12 (DMEM/F12; Gibco) supplemented with 5% horse serum (Invitrogen), 20 ng mL^−1 epidermal growth factor (Merck Millipore), 0.5 μg mL^−1 hydrocortisone (Sigma,-Aldrich, Arklow, Co. Wicklow, Ireland), 100 ng mL^−1 cholera toxin (Sigma, Aldrich, Arklow, Co. Wicklow, Ireland), 10 μg mL^−1 insulin (Sigma, Aldrich, Arklow, Co. Wicklow, Ireland), and penicillin/streptomycin 5000 U mL^−1 (1%)(Gibco, Biosciences, 3 Charlemont Terrace, Crofton Road, Dun Laoghaire, Co Dublin, A96 K7H7, Ireland). […]
# Cells were seeded at a density of 2.5 × 10^4 cells/well (MCF-7, MDA-MB-231, MCF-10A cells) and 1 × 10^4 cells/well (HL-60) in 96-well plates (200 μL per well). […] Cell proliferation for MCF-7, MDA-MB-231, and MCF-10A cells was analysed using the alamarBlue assay (Invitrogen Corp.) according to the manufacturer’s instructions. […] Fluorescence was read using a 96-well fluorimeter with excitation at 530 nm and emission at 590 nm. Results were expressed as percentage viability relative to vehicle control (100%).
# [1] = test system: MCF-10A non-tumorigenic human mammary epithelial cells; assay: toxicity evaluation, alamarBlue assay; type: cell-based; conditions: 10 μM, 24 h
# MCF-7 cells = assay: cell cycle analysis, PI staining, flow cytometry; type: cell-based, human; conditions: 1 μM
# Protocol: The cells were collected by trypsinisation and centrifuged at 800× g for 15 min. Cells were washed twice with ice-cold phosphate-buffered saline (PBS) and fixed in ice-cold 70% ethanol overnight at −20 °C.
SMILES,Growth percentage (A549/ATCC) [%],Growth percentage (HCT-2998) [%],Growth percentage (HCT-116) [%],Growth percentage (SNB-19) [%],Growth percentage (SNB-75) [%],Growth percentage (LOX IMV1) [%],Growth percentage (M14) [%],Growth percentage (SK-MEL-2) [%],Growth percentage (UACC-62) [%],Growth percentage (UACC-257) [%],Growth percentage (IGROV1) [%],Growth percentage (MCF-7) [%],Growth percentage (HS 578T),Growth percentage (BT-549) [%],Growth percentage (T-47D) [%],Growth percentage (MDA-MB-468),IC50 (HL-60 leukaemia cells) [nM],cell death [1],cells in the G2/M phase (MCF-7 cells; 24 h) [%],cells in the G2/M phase (MCF-7 cells; 48 h) [%],also measured
COc1ccc(C(c2cc(OC)c(OC)c(OC)c2)N2CCN(Cc3ccccc3)CC2)cc1 (centres unmarked) [27d],78.38,91.92,56.66,69.95,92.44,67.02,52.83,27.38,49.44,84.23,62.96,47.67,59.07%,92.41,75.11,52.99%,,,,,
COc1ccc(C(c2cc(OC)c(OC)c(OC)c2)N2CCCC2)cc1 (centres unmarked) [25g],77.65,89.14,62.27,90.50,84.06,72.96,60.08,55.67,57.35,74.57,82.87,64.09,80.45%,81.58,89.77,54.75%,,,,,
"COc1ccc(C(c2cc(OC)c(OC)c(OC)c2)n2ccnc2)cc1O (centres unmarked) [21l, 5-((1H-Imidazol-1-yl)(3,4,5-Trimethoxyphenyl)Methyl)-2-Methoxyphenol]",12.80,24.97,6.88,30.51,56.72,25.65,0.91,43.54,36.48,37.75,36.42,18.38,29.10%,-0.07,42.62,15.64%,156 ± 52,approximately 50%,47,43,"cells undergoing apoptosis (sub-G1) (MCF-7 cells; 24 h): 15%; cells undergoing apoptosis (sub-G1) (MCF-7 cells; 48 h): 31%; cells in the G2/M phase (MCF-7 cells; 72 h): 40%; cells undergoing apoptosis (sub-G1) (MCF-7 cells; 72 h): 37%; GI50 (A549/ATCC): 836 nM; GI50 (HCT-2998): 1720 nM; GI50 (HCT-116): 249 nM; GI50 (SNB-19): 532 nM; GI50 (SNB-75; Homo sapiens, SNB-75, NCI 5 dose assay): 192 nM; GI50 (LOX IMV1): 523 nM; GI50 (M14): 180 nM; GI50 (SK-MEL-2): 324 nM; GI50 (UACC-62): 668 nM; GI50 (UACC-257): 1440 nM; GI50 (IGROV1): 862 nM; GI50 (MCF-7): 339 nM; GI50 (HS 578T): 414 nM; GI50 (BT-549): 306 nM; GI50 (MDA-MB-468): 316 nM"
"COc1ccc(C(c2cc(OC)c(OC)c(OC)c2)n2cncn2)cc1O (centres unmarked) [19e, 5-((1H-1,2,4-Triazol-1-yl)(3,4,5-Trimethoxyphenyl)methyl)-2-Methoxyphenol]",18.6,25.25,7.25,33.31,48.64,43.48,-1.61,55.94,32.04,44.45,49.22,17.87,31.34%,11.30,34.98,7.88%,,approximately 50%,,,GI50 (A549/ATCC): 969 nM; GI50 (HCT-2998): 1350 nM; GI50 (HCT-116): 448 nM; GI50 (SNB-19): 578 nM; GI50 (LOX IMV1): 523 nM; GI50 (M14): 374 nM; GI50 (SK-MEL-2): 361 nM; GI50 (UACC-62): 550 nM; GI50 (UACC-257): > 100000 nM; GI50 (IGROV1): 959 nM; GI50 (MCF-7): 347 nM; GI50 (HS 578T): 548 nM; GI50 (BT-549): 618 nM; GI50 (MDA-MB-468): 371 nM
"COc1ccc(C(c2cc(OC)c(OC)c(OC)c2)N2CCCCC2)cc1 (centres unmarked) [26b, 1-((4-Methoxyphenyl)(3,4,5-Trimethoxyphenyl)Methyl)Piperidine]",49.14,79.59,29.08,30.43,26.61,36.34,23.27,22.02,18.17,54.88,47.13,23.57,16.61% and 16.6%,49.73,33.59,9.32% and 9.3%,,,,,
COc1ccc(C(c2cc(OC)c(OC)c(OC)c2)n2nccn2)cc1O (centres unmarked) [compound 24],,,,,,,,,,,,,,,,,173 ± 55,,52,56,cells in the G2/M phase (MCF-7 cells; 72 h): 59%
